Measured values published in patent US11382328B2, “Rapid drug discovery methods for pathogen inactivation” (priority 2019, dated 2022).

System: E. coli strain W3110
Experiment: Synergy assays: Biolog chemical sensitivity panels with Group IB metal, coefficient of drug interaction (CDI) from relative growth
Format: cell-based
Conditions: for CDI (coefficient of drug interaction), gold + biocide: Gold (μM); for CDI (coefficient of drug interaction), copper mixed with biocide: Copper (mM) section
[1] = Copper (mM), 1st of 3 copper concentrations (head line not shown), biocide concentration 1 of 4, E. coli
[2] = Copper (mM), 1st of 3 copper concentrations (head line not shown), biocide concentration 2 of 4, E. coli
[3] = Copper (mM), 1st of 3 copper concentrations (head line not shown), biocide concentration 3 of 4, E. coli
[4] = Copper (mM), 1st of 3 copper concentrations (head line not shown), biocide concentration 4 of 4, E. coli
[5] = Copper (mM), 2nd of 3 copper concentrations (head line not shown), biocide concentration 1 of 4, E. coli
[6] = Copper (mM), 2nd of 3 copper concentrations (head line not shown), biocide concentration 2 of 4, E. coli
[7] = Copper (mM), 2nd of 3 copper concentrations (head line not shown), biocide concentration 3 of 4, E. coli
[8] = Copper (mM), 2nd of 3 copper concentrations (head line not shown), biocide concentration 4 of 4, E. coli
[9] = Copper (mM), 3rd of 3 copper concentrations (head line not shown), biocide concentration 1 of 4, E. coli
[10] = Copper (mM), 3rd of 3 copper concentrations (head line not shown), biocide concentration 2 of 4, E. coli
[11] = Copper (mM), 3rd of 3 copper concentrations (head line not shown), biocide concentration 3 of 4, E. coli
[12] = Copper (mM), 3rd of 3 copper concentrations (head line not shown), biocide concentration 4 of 4, E. coli
[13] = Gold section of Table 5, first of three gold concentrations (μM, value not given), biocide concentration 4 of 4
[14] = Gold section of Table 5, second of three gold concentrations (μM, value not given), biocide concentration 4 of 4
[15] = Gold section of Table 5, third of three gold concentrations (μM, value not given), biocide concentration 4 of 4
[16] = Silver 0.5 μM, biocide concentration 1 of 4
[17] = Silver 0.5 μM, biocide concentration 2 of 4
[18] = Silver 0.5 μM, biocide concentration 3 of 4
[19] = Silver 0.5 μM, biocide concentration 4 of 4
[20] = Silver 1.0 μM, biocide concentration 1 of 4
[21] = Silver 1.0 μM, biocide concentration 2 of 4
[22] = Silver 1.0 μM, biocide concentration 3 of 4
[23] = Silver 1.0 μM, biocide concentration 4 of 4
[24] = Silver 5.0 μM, biocide concentration 1 of 4
[25] = Silver 5.0 μM, biocide concentration 2 of 4
[26] = Silver 5.0 μM, biocide concentration 3 of 4
[27] = Silver 5.0 μM, biocide concentration 4 of 4
[28] = Silver 0.5 μM, 4th of four biocide concentrations, E. coli
[29] = Silver 1.0 μM, 4th of four biocide concentrations, E. coli
[30] = Silver 5.0 μM, 4th of four biocide concentrations, E. coli

Question: Which “CDI (coefficient of drug interaction)” value [1] does the source give for capreomycin here?
Answer: 1.10

Question: What about the “CDI (coefficient of drug interaction)” value [2] of the same compound?
Answer: 0.91

Question: And the “CDI (coefficient of drug interaction)” value [3]?
Answer: 0.83

Question: And the “CDI (coefficient of drug interaction)” value [4]?
Answer: 0.87

Question: What about the “CDI (coefficient of drug interaction)” value [5] of the same compound?
Answer: 0.87

Question: What about the “CDI (coefficient of drug interaction)” value [6] of the same compound?
Answer: 0.86

Question: What about the “CDI (coefficient of drug interaction)” value [7] of the same compound?
Answer: 0.90

Question: And the “CDI (coefficient of drug interaction)” value [8]?
Answer: Tox

Question: And the “CDI (coefficient of drug interaction)” value [9]?
Answer: 0.86

Question: And the “CDI (coefficient of drug interaction)” value [10]?
Answer: 0.57

Question: And the “CDI (coefficient of drug interaction)” value [11]?
Answer: 0.49

Question: And the “CDI (coefficient of drug interaction)” value [12]?
Answer: 0.60

Question: And the “CDI (coefficient of drug interaction)” value [13]?
Answer: 1.03

Question: What about the “CDI (coefficient of drug interaction)” value (Gold section of Table 5, second of three gold concentrations (μM, value not given), biocide concentration 1 of 4) of the same compound?
Answer: 1.03

Question: What about the “CDI (coefficient of drug interaction)” value (Gold section of Table 5, second of three gold concentrations (μM, value not given), biocide concentration 3 of 4) of the same compound?
Answer: 0.97

Question: And the “CDI (coefficient of drug interaction)” value [14]?
Answer: 1.06

Question: And the “CDI (coefficient of drug interaction)” value (Gold section of Table 5, third of three gold concentrations (μM, value not given), biocide concentration 1 of 4)?
Answer: 1.00

Question: What about the “CDI (coefficient of drug interaction)” value (Gold section of Table 5, third of three gold concentrations (μM, value not given), biocide concentration 2 of 4) of the same compound?
Answer: 0.98

Question: What about the “CDI (coefficient of drug interaction)” value [15] of the same compound?
Answer: 1.14

Question: What about the CDI [16] of the same compound?
Answer: 0.95

Question: What about the CDI [17] of the same compound?
Answer: 0.92

Question: What about the CDI [18] of the same compound?
Answer: 0.96

Question: And the CDI [19]?
Answer: Tox

Question: What about the CDI [20] of the same compound?
Answer: 0.69

Question: And the CDI [21]?
Answer: 0.37

Question: And the CDI [22]?
Answer: 0.35

Question: And the CDI [23]?
Answer: Tox

Question: And the CDI [24]?
Answer: 0.41

Question: And the CDI [25]?
Answer: 0.11

Question: What about the CDI [26] of the same compound?
Answer: 0.02

Question: And the CDI [27]?
Answer: Tox

Question: NC(CO)C(=O)NO (racemic) [D,L-serine hydroxamate] was tested. Which “CDI (coefficient of drug interaction)” value [1] did it give?
Answer: 0.98

Question: And the “CDI (coefficient of drug interaction)” value [2]?
Answer: 0.94

Question: What about the “CDI (coefficient of drug interaction)” value [3] of the same compound?
Answer: 1.13

Question: What about the “CDI (coefficient of drug interaction)” value [4] of the same compound?
Answer: Tox

Question: And the “CDI (coefficient of drug interaction)” value [5]?
Answer: 0.77

Question: And the “CDI (coefficient of drug interaction)” value [6]?
Answer: 0.78

Question: And the “CDI (coefficient of drug interaction)” value [7]?
Answer: 1.03

Question: What about the “CDI (coefficient of drug interaction)” value [8] of the same compound?
Answer: 3.47

Question: And the “CDI (coefficient of drug interaction)” value [9]?
Answer: 0.62

Question: What about the “CDI (coefficient of drug interaction)” value [10] of the same compound?
Answer: 0.66

Question: And the “CDI (coefficient of drug interaction)” value [11]?
Answer: 1.18

Question: And the “CDI (coefficient of drug interaction)” value [12]?
Answer: Tox

Question: What about the “CDI (coefficient of drug interaction), gold + biocide” value (shortened to “CDI … gold + biocide”) (first of 3 gold concentrations, biocide concentration 1 of 4) of the same compound?
Answer: 1.04

Question: And the “CDI … gold + biocide” value (first of 3 gold concentrations, biocide concentration 2 of 4)?
Answer: 0.95

Question: And the “CDI … gold + biocide” value (first of 3 gold concentrations, biocide concentration 3 of 4)?
Answer: 1.45

Question: What about the “CDI … gold + biocide” value (first of 3 gold concentrations, biocide concentration 4 of 4) of the same compound?
Answer: 0.71

Question: And the “CDI … gold + biocide” value (second of 3 gold concentrations, biocide concentration 1 of 4)?
Answer: 1.02

Question: What about the “CDI … gold + biocide” value (second of 3 gold concentrations, biocide concentration 2 of 4) of the same compound?
Answer: 1.00

Question: And the “CDI … gold + biocide” value (second of 3 gold concentrations, biocide concentration 3 of 4)?
Answer: 1.22

Question: And the “CDI … gold + biocide” value (second of 3 gold concentrations, biocide concentration 4 of 4)?
Answer: Tox

Question: What about the “CDI … gold + biocide” value (third of 3 gold concentrations, biocide concentration 1 of 4) of the same compound?
Answer: 0.96

Question: And the “CDI … gold + biocide” value (third of 3 gold concentrations, biocide concentration 2 of 4)?
Answer: 0.94

Question: What about the “CDI … gold + biocide” value (third of 3 gold concentrations, biocide concentration 3 of 4) of the same compound?
Answer: 1.00

Question: What about the “CDI … gold + biocide” value (third of 3 gold concentrations, biocide concentration 4 of 4) of the same compound?
Answer: Tox

Question: And the CDI [16]?
Answer: 0.90

Question: And the CDI [17]?
Answer: 0.66

Question: And the CDI [18]?
Answer: 0.31

Question: What about the CDI [19] of the same compound?
Answer: Tox

Question: What about the CDI [20] of the same compound?
Answer: 0.89

Question: And the CDI [21]?
Answer: 0.77

Question: What about the CDI [22] of the same compound?
Answer: 0.62

Question: And the CDI [23]?
Answer: Tox

Question: What about the CDI [24] of the same compound?
Answer: 0.82

Question: And the CDI [25]?
Answer: 0.61

Question: And the CDI [26]?
Answer: 0.53

Question: And the CDI [27]?
Answer: Tox

Question: Which results are given for O=C1C2CC=CCC2C(=O)N1SC(Cl)(Cl)Cl (stereo not shown) [captan]?
Answer: CDI (coefficient of drug interaction), silver + biocide [28]: Tox; CDI (coefficient of drug interaction), silver + biocide [29]: Tox; CDI (coefficient of drug interaction), silver + biocide [30]: Tox

Question: Which results are given for O=C1C=C(O)C(=O)c2ccccc21 [lawsone]?
Answer: CDI (coefficient of drug interaction) [13]: Tox; CDI (coefficient of drug interaction) [14]: Tox; CDI (coefficient of drug interaction) [15]: Tox; CDI [19]: Tox; CDI [23]: Tox; CDI [27]: Tox

Question: What does the source list for Oc1ccccc1-c1ccccc1 [2-phenylphenol]?
Answer: CDI (coefficient of drug interaction), copper mixed with biocide (1st of 3 copper concentrations (value not shown), 4th of four biocide concentrations): Tox; CDI (coefficient of drug interaction), copper mixed with biocide (2nd of 3 copper concentrations (value not shown), 4th of four biocide concentrations): Tox; CDI (coefficient of drug interaction), copper mixed with biocide (3rd of 3 copper concentrations (value not shown), 4th of four biocide concentrations): Tox; CDI (coefficient of drug interaction) (Gold 5 μM, biocide concentration 4 of 4, E. coli): Tox; CDI (coefficient of drug interaction) (Gold 25 μM, biocide concentration 4 of 4, E. coli): Tox; CDI (coefficient of drug interaction), silver + biocide (Silver 0.5 μM, 3rd of four biocide concentrations, E. coli): Tox; CDI (coefficient of drug interaction), silver + biocide [28]: Tox; CDI (coefficient of drug interaction), silver + biocide (Silver 1.0 μM, 3rd of four biocide concentrations, E. coli): Tox; CDI (coefficient of drug interaction), silver + biocide [29]: Tox; CDI (coefficient of drug interaction), silver + biocide (Silver 5.0 μM, 3rd of four biocide concentrations, E. coli): Tox; CDI (coefficient of drug interaction), silver + biocide [30]: Tox; CDI (coefficient of drug interaction) ([…], biocide concentration 4 of 4, E. coli): Tox
